Test results from ChEMBL document CHEMBL1201862, “PubChem BioAssay data set” (2004).
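Dose response: 5 concentrations. Exposure: 48 h. Format: 96-well plates. Endpoint: linear interpolation; highest concentration if not reached. GI50 marks 50% less growth.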 Calls of active or inactive are those of the source. No stated cut-off is given here; in the data, active = GI50 up to about 1.1 µM and inactive = higher.

How the values were obtained:
Test in all cases: growth of human tumour cells (NCI), 48 h
EKVX = test system: EKVX
Malme-3M = test system: Malme-3M
MDA-N = test system: MDA-N
SK-MEL-5 = test system: SK-MEL-5
SK-MEL-28 = test system: SK-MEL-28
SF-539 = test system: SF-539
SK-MEL-2 = test system: SK-MEL-2
COLO 205 = test system: COLO 205
786-0 = test system: 786-0
HCT-116 = test system: HCT-116
A549 = test system: A549
U-251 = test system: U-251
SK-OV-3 = test system: SK-OV-3
LOX IMVI = test system: LOX IMVI
BT-549 = test system: BT-549
SNB-19 = test system: SNB-19
NCI/ADR-RES = test system: NCI/ADR-RES
SF-268 = test system: SF-268
HOP-62 = test system: HOP-62
SW-620 = test system: SW-620
NCI-H460 = test system: NCI-H460
T47D = test system: T47D
UACC-257 = test system: UACC-257
NCI-H226 = test system: NCI-H226
HT-29 = test system: HT-29
HCT-15 = test system: HCT-15
Hs-578T = test system: Hs-578T
IGROV-1 = test system: IGROV-1
A498 = test system: A498
TK-10 = test system: TK-10
NCI-H23 = test system: NCI-H23
SN12C = test system: SN12C
HOP-92 = test system: HOP-92
MDA-MB-231 = test system: MDA-MB-231
CAKI-1 = test system: CAKI-1
RXF 393 = test system: RXF 393
MCF7 = test system: MCF7
SNB-75 = test system: SNB-75
ACHN = test system: ACHN
K562 = test system: K562
OVCAR-8 = test system: OVCAR-8
OVCAR-3 = test system: OVCAR-3
NCI-H522 = test system: NCI-H522
RPMI-8226 = test system: RPMI-8226
UACC-62 = test system: UACC-62
SF-295 = test system: SF-295
OVCAR-5 = test system: OVCAR-5
PC-3 = test system: PC-3
KM12 = test system: KM12
UO-31 = test system: UO-31
MDA-MB-435 = test system: MDA-MB-435
HL-60 = test system: HL-60
OVCAR-4 = test system: OVCAR-4
CCRF-CEM = test system: CCRF-CEM
HCC 2998 = test system: HCC 2998
M14 = test system: M14
MOLT-4 = test system: MOLT-4
DU-145 = test system: DU-145

For `CN(C)CC(O)c1ccc(Cl)c2ccccc12` (stereo not drawn), which GI50 (EKVX) is on record?
Its GI50 is > 100 µM (inactive).

What about the GI50 (Malme-3M) of the same compound?
The GI50 was 32.3 µM (inactive).

What about the GI50 (MDA-N) of the same compound?
Its GI50 is 24.8 µM (inactive).

What about the GI50 (SK-MEL-5) of the same compound?
Its GI50 is 16.6 µM (inactive).

And the GI50 (SK-MEL-28)?
The GI50 was 19.6 µM (inactive).

And the GI50 (SF-539)?
The GI50 was 50.1 µM (inactive).

And the GI50 (SK-MEL-2)?
The GI50 was 19.3 µM (inactive).

And the GI50 (COLO 205)?
The GI50 was 20.6 µM (inactive).

What about the GI50 (786-0) of the same compound?
The GI50 was 48.3 µM (inactive).

What about the GI50 (HCT-116) of the same compound?
The GI50 was 50 µM (inactive).

What about the GI50 (A549) of the same compound?
The GI50 was > 77.6 µM (inactive).

What about the GI50 (U-251) of the same compound?
The GI50 was 37.1 µM (inactive).

What about the GI50 (SK-OV-3) of the same compound?
Its GI50 is 74 µM (inactive).

What about the GI50 (LOX IMVI) of the same compound?
The GI50 was 22.3 µM (inactive).

What about the GI50 (BT-549) of the same compound?
The GI50 was 57.1 µM (inactive).

What about the GI50 (SNB-19) of the same compound?
The GI50 was > 70 µM (inactive).

What about the GI50 (NCI/ADR-RES) of the same compound?
Its GI50 is 81.5 µM (inactive).

What about the GI50 (SF-268) of the same compound?
The GI50 was 55.6 µM (inactive).

What about the GI50 (HOP-62) of the same compound?
Its GI50 is 50.8 µM (inactive).

And the GI50 (SW-620)?
The GI50 was > 83.9 µM (inactive).

What about the GI50 (NCI-H460) of the same compound?
The GI50 was 31.2 µM (inactive).

What about the GI50 (T47D) of the same compound?
Its GI50 is 21 µM (inactive).

And the GI50 (UACC-257)?
Its GI50 is 20.9 µM (inactive).

And the GI50 (NCI-H226)?
Its GI50 is > 27.3 µM (inactive).

And the GI50 (HT-29)?
The GI50 was 50 µM (inactive).

What about the GI50 (HCT-15) of the same compound?
Its GI50 is over 90.2 µM.

And the GI50 (Hs-578T)?
The GI50 was 38.2 µM (inactive).

What about the GI50 (IGROV-1) of the same compound?
Its GI50 is 39.5 µM (inactive).

What about the GI50 (A498) of the same compound?
Its GI50 is 22.4 µM (inactive).

What about the GI50 (TK-10) of the same compound?
Its GI50 is 34.3 µM (inactive).

What about the GI50 (NCI-H23) of the same compound?
Its GI50 is > 87.1 µM (inactive).

What about the GI50 (SN12C) of the same compound?
The GI50 was 43.3 µM (inactive).

And the GI50 (HOP-92)?
Its GI50 is 14.2 µM (inactive).

And the GI50 (MDA-MB-231)?
The GI50 was 27.5 µM (inactive).

And the GI50 (CAKI-1)?
The GI50 was 25.6 µM (inactive).

What about the GI50 (RXF 393) of the same compound?
Its GI50 is 22.1 µM (inactive).

And the GI50 (MCF7)?
The GI50 was 32.7 µM (inactive).

What about the GI50 (SNB-75) of the same compound?
Its GI50 is 17.4 µM (inactive).

What about the GI50 (ACHN) of the same compound?
The GI50 was 45 µM (inactive).

What about the GI50 (K562) of the same compound?
Its GI50 is 1.15 µM (inactive).

What about the GI50 (OVCAR-8) of the same compound?
Its GI50 is > 90.4 µM (inactive).

And the GI50 (OVCAR-3)?
Its GI50 is > 91 µM (inactive).

What about the GI50 (NCI-H522) of the same compound?
Its GI50 is 33.2 µM (inactive).

What about the GI50 (RPMI-8226) of the same compound?
The GI50 was 3.08 µM (inactive).

And the GI50 (UACC-62)?
The GI50 was 17.5 µM (inactive).

And the GI50 (SF-295)?
The GI50 was 24.3 µM (inactive).

What about the GI50 (OVCAR-5) of the same compound?
Its GI50 is > 100 µM (inactive).

And the GI50 (PC-3)?
Its GI50 is 36.9 µM (inactive).

And the GI50 (KM12)?
The GI50 was 50.4 µM (inactive).

What about the GI50 (UO-31) of the same compound?
Its GI50 is 19.9 µM (inactive).

And the GI50 (MDA-MB-435)?
Its GI50 is 21.6 µM (inactive).

What about the GI50 (HL-60) of the same compound?
Its GI50 is 9.12 µM (inactive).

And the GI50 (OVCAR-4)?
Its GI50 is 63.4 µM (inactive).

And the GI50 (CCRF-CEM)?
The GI50 was 20 µM (inactive).

What about the GI50 (HCC 2998) of the same compound?
Its GI50 is 15.8 µM (inactive).

And the GI50 (M14)?
Its GI50 is 16.7 µM (inactive).

And the GI50 (MOLT-4)?
The GI50 was 23.2 µM (inactive).

What about the GI50 (DU-145) of the same compound?
The GI50 was > 96.8 µM (inactive).
